In ChEMBL document CHEMBL1127505, “Structure-activity relationships of new taxoids derived from 14 beta-hydroxy-10-deacetylbaccatin III” (J Med Chem, 1994):

Assays:
Format in all cases: functional, cell-based
MCF7 [1] = experiment: In vitro cytotoxicity against human mammary carcinoma MCF-7
A549 = experiment: In vitro cytotoxicity against human non-small cell lung carcinoma A549
A121 = experiment: In vitro cytotoxicity against human ovarian carcinoma […]
MCF7 [2] = experiment: In vitro cytotoxicity against human mammary carcinoma cells 180 fold resistant to adriamycin MCF7-R
HT-29 = experiment: In vitro cytotoxicity against human colon carcinoma HT-29

Row | Structure (SMILES) | IC50 (MCF7 [1]) [nM] | IC50 (A549) [nM] | IC50 (A121) [nM] | IC50 (MCF7 [2]) [nM] | IC50 (HT-29) [nM]
1 | CC(=O)O[C@@]12CO[C@@H]1C[C@H](O)[C@@]1(C)C(=O)[C@H](O)C3=C(C)[C@@H](O)[C@H](OC(=O)[C@@H](O)C(NC(=O)OC(C)(C)C)c4ccccc4)[C@@](O)([C@@H](OC(=O)c4ccccc4)C12)C3(C)C (some centres not stated) | 26 | 31 | 80 | > 1000 | 50
2 | CC(=O)O[C@H]1C(=O)[C@@]2(C)[C@H]([C@H](OC(=O)c3ccccc3)[C@]3(O)C[C@H](OC(=O)[C@H](O)[C@@H](NC(=O)c4ccccc4)c4ccccc4)C(C)=C1C3(C)C)[C@]1(OC(C)=O)CO[C@@H]1C[C@@H]2O [PACLITAXEL] | – | – | 6.1 | – | 3.2
3 | CC(=O)O[C@@]12CO[C@@H]1C[C@H](O)[C@@]1(C)C(=O)[C@H](O)C3=C(C)[C@@H](OC(=O)[C@H](O)[C@@H](NC(=O)OC(C)(C)C)c4ccccc4)[C@@H]4OC(=O)O[C@]4([C@@H](OC(=O)c4ccccc4)C12)C3(C)C (some centres not stated) | 1.8 | 2.1 | 6.2 | 543 | 1.8
4 | CC(=O)O[C@@]12CO[C@@H]1C[C@H](O)[C@@]1(C)C(=O)[C@H](O)C3=C(C)[C@@H](OC(=O)[C@H](O)[C@@H](NC(=O)c4ccccc4)c4ccccc4)[C@@H]4OC(=O)O[C@]4([C@@H](OC(=O)c4ccccc4)C12)C3(C)C (some centres not stated) | 11 | 33 | 105 | > 1000 | 24
5 | CC(=O)O[C@@]12CO[C@@H]1C[C@H](O)[C@@]1(C)C(=O)[C@H](O)C3=C(C)[C@@H](O)[C@H](OC(=O)[C@@H](O)C(NC(=O)c4ccccc4)c4ccccc4)[C@@](O)([C@@H](OC(=O)c4ccccc4)C12)C3(C)C (some centres not stated) | 269 | 512 | 1040 | > 1000 | 248
